Results as given in PubChem BioAssay (NCI).
Values joined by “and” are separate entries in the source; they are usually repeats but may differ in a detail not shown here. Identical values can stand only once.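 96-well plates; 48 h exposure; 5 concentrations. Endpoints by linear interpolation between flanking doses. Not reached: highest tested concentration assigned. GI50 marks 50% less growth. TGI: total growth inhibition.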

What was measured:
Assay in all cases: NCI anticancer screen, dose series, 48 h
[1] = system: RPMI-8226 leukemia
[2] = system: RXF 393 renal
[3] = system: UACC-257 melanoma
[4] = system: OVCAR-8 ovarian
[5] = system: HL-60(TB) leukemia
[6] = system: UO-31 renal
[7] = system: MCF7 breast
[8] = system: TK-10 renal
[9] = system: NCI-H522 lung
[10] = system: HOP-92 NSCLC
[11] = system: HOP-62 NSCLC
[12] = system: OVCAR-5 ovarian
[13] = system: SNB-75 CNS
[14] = system: CCRF-CEM leukemia
[15] = system: KM12 colon
[16] = system: PC-3 prostate
[17] = system: HS 578T breast
[18] = system: SN12C renal
[19] = system: SF-539 CNS
[20] = system: SK-MEL-5 melanoma
[21] = system: BT-549 breast
[22] = system: SF-268 CNS
[23] = system: HCT-15 colon
[24] = system: SW-620 colon
[25] = system: MDA-N
[26] = system: NCI-H23 lung
[27] = system: OVCAR-4 ovarian
[28] = system: EKVX NSCLC
[29] = system: NCI-H460 lung
[30] = system: A498 renal
[31] = system: K-562 leukemia
[32] = system: OVCAR-3 ovarian
[33] = system: IGROV1 ovarian
[34] = system: MOLT-4 leukemia
[35] = system: COLO 205 colon
[36] = system: SK-OV-3 ovarian
[37] = system: LOX IMVI melanoma
[38] = system: NCI-H226 lung
[39] = system: CAKI-1 renal
[40] = system: HCT-116 colon
[41] = system: SNB-19 CNS
[42] = system: MDA-MB-231 breast
[43] = system: U251 CNS
[44] = system: T-47D breast
[45] = system: DU-145 prostate
[46] = system: SK-MEL-2 melanoma
[47] = system: 786-0 renal
[48] = system: ACHN renal
[49] = system: M14 melanoma
[50] = system: NCI/ADR-RES ovarian
[51] = system: SR leukemia
[52] = system: SF-295 CNS
[53] = system: MDA-MB-435
[54] = system: UACC-62 melanoma
[55] = system: HT29 colon
[56] = system: HCC-2998 colon
[57] = system: SK-MEL-28 melanoma
[58] = system: A549 NSCLC
[59] = system: MALME-3M melanoma

`COc1cccc(N=NN2CCCC2)c1` showed a TGI [1] greater than 100 µM, a TGI [2] greater than 100 µM and a TGI [3] greater than 100 µM. For the same molecule, the TGI [4] was greater than 100 µM, the TGI [5] was greater than 100 µM and the TGI [6] was greater than 100 µM. The TGI [7] was greater than 100 µM, the TGI [8] was greater than 100 µM and the TGI [9] was greater than 100 µM. It also gave a TGI [10] greater than 100 µM, a TGI [11] greater than 100 µM and a TGI [12] greater than 100 µM. For the same molecule, the TGI [13] was greater than 100 µM, the TGI [14] was greater than 100 µM and the TGI [15] was greater than 100 µM. It also gave a TGI [16] greater than 100 µM, a TGI [17] greater than 100 µM and a TGI [18] greater than 100 µM. For the same molecule, the TGI [19] was greater than 100 µM, the TGI [20] was greater than 100 µM and the TGI [21] was greater than 100 µM. It also gave a TGI [22] greater than 100 µM, a TGI [23] greater than 100 µM and a TGI [24] greater than 100 µM. It also gave a TGI [25] greater than 100 µM, a TGI [26] greater than 100 µM and a TGI [27] greater than 100 µM. It also gave a TGI [28] greater than 100 µM, a TGI [29] greater than 100 µM and a TGI [30] greater than 100 µM. It also gave a TGI [31] greater than 100 µM, a TGI [32] greater than 100 µM and a TGI [33] greater than 100 µM. For the same molecule, the TGI [34] was greater than 100 µM, the TGI [35] was greater than 100 µM and the TGI [36] was greater than 100 µM. For the same molecule, the TGI [37] was greater than 100 µM, the TGI [38] was greater than 100 µM and the TGI [39] was greater than 100 µM. It also gave a TGI [40] greater than 100 µM, a TGI [41] greater than 100 µM and a TGI [42] greater than 100 µM. The TGI [43] was greater than 100 µM, the TGI [44] was greater than 100 µM and the TGI [45] was greater than 100 µM. For the same molecule, the TGI [46] was greater than 100 µM, the TGI [47] was greater than 100 µM and the TGI [48] was greater than 100 µM. For the same molecule, the TGI [49] was greater than 100 µM, the TGI [50] was greater than 100 µM and the TGI [51] was greater than 100 µM. For the same molecule, the TGI [52] was greater than 100 µM, the TGI [53] was greater than 100 µM and the TGI [54] was greater than 100 µM.

For `Cc1cc2occ(S(=O)(=O)NC(=O)Nc3ccc(Cl)cc3)c(=O)c2c(=O)o1`, the TGI [1] was greater than 100 µM, the TGI [2] was greater than 100 µM and the TGI [3] was greater than 100 µM. The TGI [4] was greater than 100 µM, the TGI [5] was greater than 100 µM and the TGI [55] was greater than 100 µM. It also gave a TGI [6] greater than 100 µM, a TGI [7] greater than 100 µM and a TGI [8] greater than 100 µM. The TGI [9] was greater than 100 µM, the TGI [10] was greater than 100 µM and the TGI [11] was greater than 100 µM. It also gave a TGI [12] greater than 100 µM, a TGI [13] greater than 100 µM and a TGI [14] greater than 100 µM. The TGI [15] was greater than 100 µM, the TGI [16] was greater than 100 µM and the TGI [17] was greater than 100 µM. For the same molecule, the TGI [18] was greater than 100 µM, the TGI [19] was greater than 100 µM and the TGI [20] was greater than 100 µM. It also gave a TGI [56] greater than 100 µM, a TGI [57] greater than 100 µM and a TGI [21] greater than 100 µM. The TGI [22] was greater than 100 µM, the TGI [23] was greater than 100 µM and the TGI [24] was greater than 100 µM. The TGI [25] was greater than 100 µM, the TGI [26] was greater than 100 µM and the TGI [27] was greater than 100 µM. It also gave a TGI [28] greater than 100 µM, a TGI [29] greater than 100 µM and a TGI [30] greater than 100 µM. For the same molecule, the TGI [31] was greater than 100 µM, the TGI [32] was greater than 100 µM and the TGI [33] was greater than 100 µM. It also gave a TGI [34] greater than 100 µM, a TGI [35] greater than 100 µM and a TGI [36] greater than 100 µM. It also gave a TGI [37] greater than 100 µM, a TGI [38] greater than 100 µM and a TGI [39] greater than 100 µM. The TGI [40] was greater than 100 µM, the TGI [41] was greater than 100 µM and the TGI [42] was greater than 100 µM. It also gave a TGI [43] greater than 100 µM, a TGI [58] greater than 100 µM and a TGI [44] greater than 100 µM. For the same molecule, the TGI [45] was greater than 100 µM, the TGI [46] was greater than 100 µM and the TGI [59] was greater than 100 µM. The TGI [47] was greater than 100 µM, the TGI [48] was greater than 100 µM and the TGI [49] was greater than 100 µM. It also gave a TGI [50] greater than 100 µM, a TGI [52] greater than 100 µM and a TGI [53] greater than 100 µM. For the same molecule, the TGI [54] was greater than 100 µM.

In the case of `CC[C@@]1(O)C(=O)OCc2c1cc1n(c2=O)Cc2c-1nc1ccccc1c2C=Nc1ccccc1N[C@@H]1c2cc3c(cc2[C@@H](c2cc(OC)c(O)c(OC)c2)[C@H]2C(=O)OC[C@@H]21)OCO3`, the TGI [1] is reported as greater than 50 µM, the GI50 [2] is reported as 0.317 µM and 0.0619 µM and the TGI [2] is reported as 5.02 µM and 0.54 µM. The TGI [3] was 66.7 µM and 11.3 µM, the GI50 [4] was 0.0551 µM and 0.28 µM and the TGI [4] was 2.15 µM and 4.12 µM. The GI50 [5] was 0.0325 µM and 0.192 µM, the TGI [5] was greater than 100 µM and the GI50 [55] was 0.327 µM and 0.125 µM. The TGI [55] was greater than 50 µM, the GI50 [6] was 0.129 µM and 0.0745 µM and the TGI [6] was 3.12 µM and 0.593 µM. For the same molecule, the GI50 [7] was less than 0.005 µM, the GI50 [8] was 3.49 µM and 0.549 µM and the GI50 [9] was 0.072 µM and 0.192 µM. For the same molecule, the TGI [10] was greater than 100 µM, the TGI [11] was 0.466 µM and 0.154 µM and the GI50 [12] was 0.847 µM and 0.281 µM. For the same molecule, the TGI [13] was 5.48 µM and 0.647 µM, the TGI [14] was greater than 100 µM and the GI50 [15] was 4.99 µM and 1.74 µM. For the same molecule, the TGI [15] was > 41.6 µM and 8.08 µM, the TGI [16] was greater than 65.8 µM and the GI50 [17] was 4.87 µM and 0.875 µM. For the same molecule, the TGI [17] was greater than 100 µM, the GI50 [18] was 0.0632 µM and 0.0234 µM and the TGI [18] was > 100 µM and 24.6 µM. The GI50 [19] was 0.0228 µM and < 0.005 µM, the TGI [19] was 0.239 µM and the GI50 [56] was 10.3 µM. The TGI [56] was 24.6 µM, the GI50 [57] was 11.4 µM and 1.17 µM and the TGI [57] was 35 µM and > 50 µM. The TGI [21] was greater than 50 µM, the TGI [22] was greater than 82.3 µM and the GI50 [23] was 0.88 µM and 0.19 µM. For the same molecule, the TGI [24] was greater than 100 µM, the GI50 [25] was 0.616 µM and 0.183 µM and the TGI [25] was 28 µM and 3.12 µM. The GI50 [26] was 0.0356 µM and 0.0156 µM, the GI50 [27] was 17.2 µM and the TGI [27] was greater than 62.6 µM. For the same molecule, the GI50 [28] was 3.77 µM and 0.791 µM, the TGI [28] was greater than 44.5 µM and the GI50 [30] was 0.325 µM and 0.142 µM. For the same molecule, the TGI [30] was 1.79 µM and 0.68 µM, the TGI [31] was greater than 100 µM and the GI50 [32] was 1.46 µM and 0.337 µM. The TGI [32] was 10.9 µM and 1.81 µM, the GI50 [33] was 0.544 µM and 0.22 µM and the TGI [33] was 12.4 µM and 7.63 µM. The GI50 [35] was 8.86 µM and 0.929 µM, the TGI [35] was 24.8 µM and > 10.6 µM and the GI50 [36] was 1.23 µM and 0.213 µM. It also gave a TGI [36] of 15.2 µM, a TGI [38] of 3.05 µM and a GI50 [39] of 0.0138 µM. For the same molecule, the TGI [39] was 0.807 µM and 0.494 µM, the TGI [40] was 4.48 µM and 2.5 µM and the GI50 [41] was 0.0869 µM and 0.0336 µM. It also gave a TGI [41] greater than 52.5 µM, a GI50 [42] of 7.04 µM and a TGI [42] greater than 49.8 µM. It also gave a TGI [43] of 34.6 µM, a TGI [58] of 7.62 µM and a GI50 [44] of 0.00836 µM. For the same molecule, the TGI [44] was 0.163 µM, the TGI [45] was 0.0979 µM and 0.0432 µM and the GI50 [46] was 7.14 µM and 1.62 µM. The TGI [46] was 36.3 µM and 3.86 µM, the TGI [59] was 25.6 µM and 3.78 µM and the TGI [47] was 0.339 µM. For the same molecule, the TGI [48] was 0.961 µM and 0.171 µM, the GI50 [49] was 0.0322 µM and the TGI [49] was 6.02 µM and 1.03 µM. The GI50 [50] was 0.0689 µM and 0.24 µM, the TGI [50] was 2.88 µM and 2.78 µM and the GI50 [52] was 0.149 µM and 0.134 µM. The TGI [52] was greater than 50 µM, the GI50 [53] was 0.358 µM and 0.45 µM and the TGI [53] was 24.3 µM and > 50 µM. It also gave a TGI [54] of 13.1 µM.
